Columns and labels:
[1] = Plasma pharmacokinetics of DMT, harmine and their metabolites (non-compartmental analysis)
Method: (§1) The study was conducted as a within-subject, double-blind, randomized placebo-controlled trial. Randomization was performed by an independent individual using a computer-generated random number sequence. All participants underwent 3 randomized drug treatments on separate study days, with an intervening washout period of at least 2 weeks: (1) DMT/HAR: harmine hydrochloride (HCl; 100 mg; buccal orodispersible tablet; ODT) plus DMT (as hemifumarate; 100 mg; intranasal: 10 mg every 15 minutes over 150 minutes), (2) HAR/PLA: harmine (100 mg, buccal ODT) plus placebo nasal spray (NaCl; at same dosing intervals), and (3) PLA/PLA: placebo buccal ODT plus placebo nasal spray. In all conditions, buccal tablets were premedicated for 30 minutes. Food or water intake was not allowed 2 hours before drug administration.
(§2) Thirty minutes following buccal premedication with harmine HCl (100 mg) or placebo, the intranasal repeated-intermittent administration of DMT or placebo was initiated. Volunteers received up to 100 mg DMT in 10 mg dosing steps each 15 minutes (2 × 2 puffs per nostril) over a period of 150 minutes (except for a 30-minute break between 60 and 90 minutes due to a behavioral task). […] Volunteers could adjust each dose (0, 5, 10 mg) based on tolerance, with encouragement to follow the regimen if no adverse effects (AEs) occurred. Thus, volunteers were given the chance to control the psychedelic strength of the experience to enhance safety and tolerability.
(§3) Blood samples were collected from the left or right antecubital vein at −30 (baseline), 0, 30, 60, 90, 120, 150, 180, 195, 210, 240, 270, and 300 minutes after first DMT/placebo administration for analysis of blood plasma levels of harmine, DMT, the 3 major DMT metabolites 3-IAA, DMT-N-oxide, and NMT and the major harmine metabolite harmol. While DMT administration was ongoing, blood drawing was always performed right before DMT administration (time point -1 minute). The venous catheter was connected to a 100 mm Heidelberger plastic tube extension to collect blood samples without disturbing the volunteers during their psychedelic experience. The intravenous line was kept patent with a slow drip (10 mL/h) of heparinized saline (1000 IU heparin in 0.9 g NaCl/dL; HEPARIN Bichsel; Bichsel AG). Blood samples were immediately centrifuged for 10 minutes at 2000 RCF. Then, plasma was transferred to Eppendorf tubes, shock-frosted in liquid nitrogen (~ −196 °C) and stored at −80 °C until assay.
(§4) The data were analyzed and visualized with R Studio version 2021.09.2 + 382.[36] PK-PD parameters were computed using the R-package PKNCA.[37] For Cmax, tmax, AUCs (area under the curves), and half-life calculations, non-compartmental analyses were performed.[38] […] Post hoc pairwise comparisons were calculated using paired Wilcoxon signed-rank tests. P-values were adjusted using the Benjamini-Hochberg multiple testing correction method. Pearson or Spearman correlations were performed (as appropriate according to Shapiro-Wilk tests) to analyze associations between DMT plasma levels and subjective effects.
(§5) For the sample preparation 200 µl of plasma were spiked with 50 µl internal standard (IS) mixture (40 ng/ml DMT-d6 and harmine-d3) and 50 µl methanol (MeOH). Proteins were precipitated by adding 400 µl of acetonitrile (ACN). The samples were shaken for 10 minutes and centrifuged for 5 min at 10‘000 rpm. 350 µl of the supernatant was transferred into an auto-sampler vial, evaporated to dryness under a gentle stream of nitrogen at room temperature and reconstituted in 100 µl eluent-mixture (98:2, v/v).

healthy male volunteers = assay: Acute subjective drug effects, visual analog scales (VAS 0–100); type: in vivo, human
Method: The detailed dosing scheme is depicted in Figure 1.
The intensity of acute subjective effects was monitored with visual analog scales (VASs, range 0–100) on a touchscreen tablet throughout the study day at baseline (−90), 0, 30, 60, 90, 120, 180, 240, and 300 after the first DMT/placebo administration. At 360 minutes after the first DMT/placebo administration, a phenomenological interview was conducted with participants to further explore acute subjective drug effects. For PK-PD analyses, we included VAS for intensity, liking, disliking, and arousal in the present paper. Further analyses on a set of neurophysiological, psychometric, and phenomenological assessments will be presented in forthcoming manuscripts.

clinical = conditions: male, human, plasma, other: intranasal (DMT), buccal (harmine)
Method: as §1, §2, §3, §4, §5

## CN(C)CCc1c[nH]c2ccccc12 [DMT, N,N-dimethyltryptamine]
[1]; DMT + harmine condition
  time blood plasma levels remained constant after the last intranasal DMT dose: 30 min
[1]; male, human, plasma, other: intranasal
  half-life: 0.6 h
Healthy male volunteers; DMT + harmine condition, 95% CI 0.51-0.66
  correlation (r) between subjective intensity ratings and DMT plasma levels: 0.59
Healthy male volunteers; DMT + harmine, after first DMT administration
  duration of psychedelic effects / overall drug action: ≤ 240 min
Healthy male volunteers; DMT co-administered with harmine
  duration of acute drug (psychedelic) effects: 2 to 3 h

## O=C(O)Cc1c[nH]c2ccccc12 [3-IAA, indole-3-acetic acid]
[1]; harmine-only (HAR) condition
  plasma levels after harmine administration: decreased
clinical
  AUC: 7580 ng·h/mL
  Cmax: 2910 ng/mL
  Tmax: 4.1 h

— PMC11770821, “Pharmacokinetics and pharmacodynamics of an innovative psychedelic N,N-dimethyltryptamine/harmine formulation in healthy participants: a randomized controlled trial” (International Journal of Neuropsychopharmacology, 2025)
